# Laboratory results from patent US12655141B2, “Inhibitors of notch signaling pathway and use thereof in treatment of cancers” (Cellestia Biotech AG, priority 2019, dated 2026).
# Columns and labels:
# [1] = test system: NOTCH positive/driven human T cell acute lymphoblastic leukemia cell line RPMI 8402; assay: PrestoBlue anti-proliferative assay; assay type: cell-based; settings: for IC50: Homo sapiens, RPMI 8402, RPMI8402, 72 hours, concentration range 0.03-100 μM; for fold change compared to 6-(4-tert-butylphenoxy)pyridin-3-amine (anti-proliferative IC50): RPMI8402, 72 hours
# Procedure: Alamarblue® and PrestoBlue proliferation assays were performed to determine the growth kinetics of Notch inhibitor treated cells. Alamar Blue® and PrestoBlue consists of a cell permeable substrate resazurin. In metabolically active and proliferating cells, resazurin is converted to resorufin due to an intrinsic reducing power of live cells and produces a red fluorescence. Therefore production of resorufin serves as an indicator of the viability of the cell population.
# Proliferation assays were performed by seeding 5000 cells/well in a 96 well plate. […] Each concentration was tested in 4 replicates. To determine the growth kinetics, 10 μl of Alamar Blue® or PrestoBlue (Invitrogen) was added to each well and incubated for 4 hours. Readout was taken using Tecan F500 (Tecan) multiplate reader or Varioskan LUX (ThermoFisher) multiplate reader.
# In order to determine anti-cancer potency of compounds compared to 6-(4-tert-butylphenoxy)pyridin-3-amine (described in WO2013/093885), NOTCH positive/driven human T cell acute lymphoblastic leukemia cell line RPMI 8402 was treated with selected compounds.
# cMYC = assay: Jess western blot of RPMI8402 protein lysates: cMYC; assay type: cell-based, human; settings: RPMI8402, 1 μM, 24 hours, 37° C
# Procedure: (§1) One million human NOTCH positive T-ALL cell line RPMI8402 were treated with NOTCH targeting compounds at 1 μM concentration for 24 hours. Following treatment cells were harvested and washed with 1×PBS. Total RNA and total protein lysates were extracted as described below.
# (§2) Cells were lysed in RIPA buffer (50 mM Tris·Cl, pH 7.5, 150 mM NaCl, 1% nonidet P-40, 0.5% sodium deoxycholate and 0.1% SDS) for 30 minutes at 4° C. Lysed cells were centrifuged to remove the debris at 14000 rpm at 4° C. Supernatant was transferred to a new eppendorf tube. The protein concentration was determined by Bradford assay using spectrophotometer (Ultrospec 3000 pro).
# (§3) Later on western blotting was carried out using Jess (ProteinSimple, biotechne). Samples containing 0.8 μg protein was denatured in loading buffer containing DTT by heating at 95° C. for 5 minutes. Samples were run on 12-230 kDa gel matrix, with incubation time for primary and secondary antibodies of 1 hour and 30 minutes, respectively. Data were analysed using Compass for SW (ProteinSimple, biotechne) software.
# (§4) Total protein lysates were analysed by Jess western blot analysis using N1-ICD (cleaved and active NOTCH1 Intracellular Domain), cMYC and GAPDH specific antibodies.
# [2] = test system: N1-ICD (cleaved and active NOTCH1 Intracellular Domain); assay: Jess western blot of RPMI8402 protein lysates: N1-ICD; assay type: cell-based, human; settings: RPMI8402, 1 μM, 24 hours, 37° C
# Procedure: as §1, §2, §3, §4
structure (smiles),measurement,setting,value
"CNc1ccc(Oc2ccc(-c3ccc(F)cc3)cc2)nc1 [Example 27, 6-((4′-Fluoro-[1,1′-biphenyl]-4-yl)oxy)-N-methylpyridin-3-amine]",IC50,[1],200 nM
same,fold change compared to 6-(4-tert-butylphenoxy)pyridin-3-amine (anti-proliferative IC50),[1],(3.7x)
same,Percentage improvement of compounds over 6-(4-tert-Butylphenoxy)pyridin-3-amine to downregulate NOTCH target genes (protein expression): cMYC,cMYC,183%
same,Percentage improvement of compounds over 6-(4-tert-Butylphenoxy)pyridin-3-amine to downregulate NOTCH target genes (protein expression): N1-ICD,[2],197%
"Cc1nc(Oc2ccc(-c3ccc(F)cc3)cc2)ccc1N [Example 28, 6-((4′-Fluoro-[1,1′-biphenyl]-4-yl)oxy)-2-methylpyridin-3-amine]",IC50,[1],< 30 nM
same,fold change compared to 6-(4-tert-butylphenoxy)pyridin-3-amine (anti-proliferative IC50),[1],(>24x)
same,Percentage improvement of compounds over 6-(4-tert-Butylphenoxy)pyridin-3-amine to downregulate NOTCH target genes (protein expression): cMYC,cMYC,170%
same,Percentage improvement of compounds over 6-(4-tert-Butylphenoxy)pyridin-3-amine to downregulate NOTCH target genes (protein expression): N1-ICD,[2],173%
"Cc1cc(Oc2ccc(-c3ccc(F)cc3)cc2)ncc1N [Example 29, 6-((4′-Fluoro-[1,1′-biphenyl]-4-yl)oxy)-4-methylpyridin-3-amine]",Percentage improvement of compounds over 6-(4-tert-Butylphenoxy)pyridin-3-amine to downregulate NOTCH target genes (protein expression): cMYC,cMYC,183%
same,Percentage improvement of compounds over 6-(4-tert-Butylphenoxy)pyridin-3-amine to downregulate NOTCH target genes (protein expression): N1-ICD,[2],192%
"Cc1nc(Oc2ccc(-c3ccccc3)nc2)ccc1N [Example 30, 2-Methyl-6-((6-phenylpyridin-3-yl)oxy)pyridin-3-amine]",IC50,[1],450 nM
same,fold change compared to 6-(4-tert-butylphenoxy)pyridin-3-amine (anti-proliferative IC50),[1],(1.6x)
same,Percentage improvement of compounds over 6-(4-tert-Butylphenoxy)pyridin-3-amine to downregulate NOTCH target genes (protein expression): cMYC,cMYC,159%
same,Percentage improvement of compounds over 6-(4-tert-Butylphenoxy)pyridin-3-amine to downregulate NOTCH target genes (protein expression): N1-ICD,[2],159%
"Cc1cc(Oc2ccc(-c3ccccc3)nc2)ncc1N [Example 31, 4-Methyl-6-((6-phenylpyridin-3-yl)oxy)pyridin-3-amine]",Percentage improvement of compounds over 6-(4-tert-Butylphenoxy)pyridin-3-amine to downregulate NOTCH target genes (protein expression): cMYC,cMYC,108%
same,Percentage improvement of compounds over 6-(4-tert-Butylphenoxy)pyridin-3-amine to downregulate NOTCH target genes (protein expression): N1-ICD,[2],110%
"Cc1nc(Oc2ccc(-c3cncs3)cc2)ccc1N [Example 32, 2-Methyl-6-(4-(thiazol-5-yl)phenoxy)pyridin-3-amine]",IC50,[1],500 nM
same,fold change compared to 6-(4-tert-butylphenoxy)pyridin-3-amine (anti-proliferative IC50),[1],(1.5x)
same,Percentage improvement of compounds over 6-(4-tert-Butylphenoxy)pyridin-3-amine to downregulate NOTCH target genes (protein expression): cMYC,cMYC,133%
same,Percentage improvement of compounds over 6-(4-tert-Butylphenoxy)pyridin-3-amine to downregulate NOTCH target genes (protein expression): N1-ICD,[2],136%
"Cc1cc(Oc2ccc(-c3cncs3)cc2)ncc1N [Example 33, 4-Methyl-6-(4-(thiazol-5-yl)phenoxy)pyridin-3-amine]",IC50,[1],< 30 nM
same,fold change compared to 6-(4-tert-butylphenoxy)pyridin-3-amine (anti-proliferative IC50),[1],(>24x)
same,Percentage improvement of compounds over 6-(4-tert-Butylphenoxy)pyridin-3-amine to downregulate NOTCH target genes (protein expression): cMYC,cMYC,130%
same,Percentage improvement of compounds over 6-(4-tert-Butylphenoxy)pyridin-3-amine to downregulate NOTCH target genes (protein expression): N1-ICD,[2],132%
"CNc1ccc(Oc2ccc(-c3cncs3)cc2)nc1 [Example 34, N-Methyl-6-(4-(thiazol-5-yl)phenoxy)pyridin-3-amine]",IC50,[1],150 nM
same,fold change compared to 6-(4-tert-butylphenoxy)pyridin-3-amine (anti-proliferative IC50),[1],(4.9x)
same,Percentage improvement of compounds over 6-(4-tert-Butylphenoxy)pyridin-3-amine to downregulate NOTCH target genes (protein expression): cMYC,cMYC,115%
same,Percentage improvement of compounds over 6-(4-tert-Butylphenoxy)pyridin-3-amine to downregulate NOTCH target genes (protein expression): N1-ICD,[2],114%
"Cc1cc(Oc2ccc(-c3nccs3)cc2)ncc1N [Example 36, 4-Methyl-6-(4-(thiazol-2-yl)phenoxy)pyridin-3-amine]",IC50,[1],50 nM
same,fold change compared to 6-(4-tert-butylphenoxy)pyridin-3-amine (anti-proliferative IC50),[1],(14.8x)
"Cc1ccccc1-c1ccc(Oc2ccc(N)c(C)n2)cc1C [Example 37, 6-((2,2′-Dimethyl-[1,1′-biphenyl]-4-yl)oxy)-2-methylpyridin-3-amine]",Percentage improvement of compounds over 6-(4-tert-Butylphenoxy)pyridin-3-amine to downregulate NOTCH target genes (protein expression): cMYC,cMYC,138%
same,Percentage improvement of compounds over 6-(4-tert-Butylphenoxy)pyridin-3-amine to downregulate NOTCH target genes (protein expression): N1-ICD,[2],151%
"Nc1ccc(Cc2ccc(-c3ccc(F)cc3)cc2)cc1 [Example 59, 4-((4′-Fluoro-[1,1′-biphenyl]-4-yl)methyl)aniline]",Percentage improvement of compounds over 6-(4-tert-Butylphenoxy)pyridin-3-amine to downregulate NOTCH target genes (protein expression): cMYC,cMYC,154%
same,Percentage improvement of compounds over 6-(4-tert-Butylphenoxy)pyridin-3-amine to downregulate NOTCH target genes (protein expression): N1-ICD,[2],149%
